{"source": "patent US5750499A", "about": "“Receptor-selective somatostatin analogs” (The Salk Institute for Biological Studies, priority 1995, dated 1998)", "key": {"[1]": {"target": "T1, mSSTR2 (Mus musculus, UniProt P30875)", "T1 construct": "expressed in transfected cells; host or cells: COS and CHO cells", "T1 sequence (P30875 whole entry)": "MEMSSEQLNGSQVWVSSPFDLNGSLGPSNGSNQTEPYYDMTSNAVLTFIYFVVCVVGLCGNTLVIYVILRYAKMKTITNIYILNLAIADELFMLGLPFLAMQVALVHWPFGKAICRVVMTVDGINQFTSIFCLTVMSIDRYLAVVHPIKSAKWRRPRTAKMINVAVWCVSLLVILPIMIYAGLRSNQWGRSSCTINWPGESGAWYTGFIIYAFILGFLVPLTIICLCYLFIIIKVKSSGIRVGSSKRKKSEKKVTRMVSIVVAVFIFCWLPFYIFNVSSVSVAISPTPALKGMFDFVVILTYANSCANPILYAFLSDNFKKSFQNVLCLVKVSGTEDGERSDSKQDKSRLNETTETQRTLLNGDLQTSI", "assay": "Inhibition of [125I-Tyr11]SRIF binding to cloned mSSTR2 (Table)", "experimental": "(§1) In vitro Bioassay: The effects of the various somatostatin analogs are tested in vitro for their ability to bind to isolated cloned receptors expressed on COS and CHO cells.\n(§2) The molecular cloning of the genes encoding multiple somatostatin receptor subtypes permits the individual expression of these receptors in mammalian cells and the characterization of their respective pharmacological profiles.\n(§3) Certain of the measurements are in progress."}, "[2]": {"target": "T2, mSSTR1 (Mus musculus, UniProt P30873)", "T2 construct": "expressed in transfected cells; host or cells: COS and CHO cells", "T2 sequence (P30873 whole entry)": "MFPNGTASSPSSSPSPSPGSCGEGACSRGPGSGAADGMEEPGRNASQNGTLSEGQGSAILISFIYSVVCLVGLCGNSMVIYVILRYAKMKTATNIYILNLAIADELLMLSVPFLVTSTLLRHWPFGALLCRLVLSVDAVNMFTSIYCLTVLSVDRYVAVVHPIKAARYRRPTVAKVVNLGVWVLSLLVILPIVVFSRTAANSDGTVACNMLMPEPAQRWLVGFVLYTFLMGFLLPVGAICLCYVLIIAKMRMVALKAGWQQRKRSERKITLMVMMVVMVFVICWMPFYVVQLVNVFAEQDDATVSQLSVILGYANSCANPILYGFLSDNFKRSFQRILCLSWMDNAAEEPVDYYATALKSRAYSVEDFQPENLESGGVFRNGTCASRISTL", "assay": "Inhibition of [125I-Tyr11]SRIF binding to cloned mSSTR1 (Table)", "experimental": "as §1, §2, §3"}, "[3]": {"target": "T3, SSTR1 (Homo sapiens, UniProt P30872)", "T3 construct": "expressed in transfected cells; host or cells: COS and CHO cells", "T3 sequence (P30872 whole entry)": "as the sequence (P30873 whole entry) above, with A25G, C26G, S32A, A385T, S389T counted along it", "assay": "Inhibition of [125I-Tyr11]SRIF binding to cloned human SSTR1", "experimental": "In a typical assay, an amount of protein from the cell homogenate is placed into a small volume of an appropriate assay buffer at an appropriate pH.\n(§4) Alternatively, IC50 values indicative of the concentration of a competitive ligand necessary to displace a saturation concentration of a target ligand being measured from 50% of binding sites can also be calculated in such competitive assays.\nas §1, §2"}, "[4]": {"target": "T4, mSSTR3 (Mus musculus, UniProt P30935)", "T4 construct": "expressed in transfected cells; host or cells: COS and CHO cells", "T4 sequence (P30935 whole entry)": "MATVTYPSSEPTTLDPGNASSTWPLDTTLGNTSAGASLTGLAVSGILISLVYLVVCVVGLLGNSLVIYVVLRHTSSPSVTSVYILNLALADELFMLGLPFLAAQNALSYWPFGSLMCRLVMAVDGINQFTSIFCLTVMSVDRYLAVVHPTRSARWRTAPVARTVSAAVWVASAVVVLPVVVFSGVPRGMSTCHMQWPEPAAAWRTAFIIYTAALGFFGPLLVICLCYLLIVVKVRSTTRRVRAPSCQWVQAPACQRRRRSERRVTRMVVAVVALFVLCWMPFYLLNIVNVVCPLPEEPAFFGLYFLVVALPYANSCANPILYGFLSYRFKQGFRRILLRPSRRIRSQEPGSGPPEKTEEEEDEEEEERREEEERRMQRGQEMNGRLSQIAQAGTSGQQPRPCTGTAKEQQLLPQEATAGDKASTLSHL", "assay": "Inhibition of [125I-Tyr11]SRIF binding to cloned mSSTR3 (Table)", "experimental": "as §1, §2, §3"}, "[5]": {"target": "T5, SSTR1 expressed in COS-7 cells (Homo sapiens, UniProt P30872)", "T5 construct": "expressed in transfected cells; host or cells: COS-7 cells", "T5 sequence (P30872 whole entry)": "as the sequence (P30873 whole entry) above, with A25G, C26G, S32A, A385T, S389T counted along it", "assay": "GTPgS and pertussis toxin regulation of radioligand binding to SSTR1 expressed in COS-7 cells", "text": "(§5) The Bmax value represents the highest number of specific sites which can be occupied at a given time, i.e. the saturation point."}, "[6]": {"target": "T6, SSTR4 (Homo sapiens, UniProt P31391)", "T6 construct": "expressed in transfected cells; host or cells: COS and CHO cells", "T6 sequence (P31391 whole entry)": "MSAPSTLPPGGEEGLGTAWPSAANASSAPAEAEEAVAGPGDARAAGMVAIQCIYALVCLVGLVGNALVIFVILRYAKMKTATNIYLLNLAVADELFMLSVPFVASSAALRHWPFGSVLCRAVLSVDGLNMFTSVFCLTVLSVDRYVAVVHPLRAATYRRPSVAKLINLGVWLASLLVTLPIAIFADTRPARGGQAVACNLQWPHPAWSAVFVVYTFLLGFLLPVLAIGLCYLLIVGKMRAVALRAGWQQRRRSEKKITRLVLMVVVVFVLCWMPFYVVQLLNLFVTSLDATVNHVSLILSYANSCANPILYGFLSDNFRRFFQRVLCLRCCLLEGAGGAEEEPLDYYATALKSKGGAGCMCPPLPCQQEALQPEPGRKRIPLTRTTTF", "assay": "Direct binding of iodinated Peptide No. 5 to cloned SSTR4", "text": "as §5"}, "[7]": {"target": "T7, SSTR5 (Rattus norvegicus, UniProt P30938)", "T7 construct": "expressed in transfected cells; host or cells: COS and CHO cells", "T7 sequence (P30938 1-363)": "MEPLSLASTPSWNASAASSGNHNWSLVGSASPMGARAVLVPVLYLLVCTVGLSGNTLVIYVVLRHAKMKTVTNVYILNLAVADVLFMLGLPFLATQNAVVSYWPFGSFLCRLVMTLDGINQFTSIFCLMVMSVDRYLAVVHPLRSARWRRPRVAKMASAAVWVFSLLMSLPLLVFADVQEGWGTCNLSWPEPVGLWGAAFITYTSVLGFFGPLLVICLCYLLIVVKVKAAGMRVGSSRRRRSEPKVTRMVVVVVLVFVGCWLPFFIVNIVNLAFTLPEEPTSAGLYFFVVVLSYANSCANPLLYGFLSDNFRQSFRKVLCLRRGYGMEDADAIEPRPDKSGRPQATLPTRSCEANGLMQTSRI", "assay": "Direct binding of iodinated Peptide No. 5 to cloned SSTR5", "text": "as §5"}, "[8]": {"target": "T8, SSTR2 (Mus musculus, UniProt P30875)", "T8 construct": "expressed in transfected cells; host or cells: COS and CHO cells", "T8 sequence (P30875 whole entry)": "as the sequence (P30875 whole entry) above", "assay": "Direct binding of iodinated Peptide No. 5 to cloned SSTR2", "text": "as §5"}, "[9]": {"target": "T3, SSTR1", "assay": "Direct saturation binding of iodinated Peptide No. 5 to cloned SSTR1", "conditions": "iodinated peptide as radioligand", "text": "as §4, §5"}, "[10]": {"target": "T9, SSTR3 (Mus musculus, UniProt P30935)", "T9 construct": "expressed in transfected cells; host or cells: COS and CHO cells", "T9 sequence (P30935 whole entry)": "as the sequence (P30935 whole entry) above", "assay": "Direct binding of iodinated Peptide No. 5 to cloned SSTR3", "text": "as §5"}, "[11]": {"target": "T3, SSTR1", "assay": "Inhibition of binding of iodinated Peptide No. 5 to SSTR1", "conditions": "radioligand iodinated Peptide No. 5", "text": "as §4, §5"}, "[12]": {"test_system": "COS-7 cells expressing SSTR1", "assay": "Forskolin-stimulated cAMP formation in COS-7 cells expressing SSTR1", "format": "cell-based", "conditions": "1 μM of Peptide No. 2"}}, "note": "“Also recorded” adds a separate entry of the source. Where a SMILES comes first, the peptide text is derived from it. Bridges are numbered along the chain shown (N, C = ends). Where no end group is shown, it is not given here. [ ]: non-standard residue; d: D form. The star is where a group is joined. Phe(4-CH2NHiPr) = CC(C)NCc1ccc(C[C@H](N)C(=O)O)cc1; Tyr(3-I) = N[C@@H](Cc1ccc(O)c(I)c1)C(=O)O; 125I = [125I]*"}
{"compound": "CC(C)NCc1ccc(C[C@@H]2NC(=O)[C@@H](Cc3c[nH]c4ccccc34)NC(=O)[C@H](Cc3ccccc3)NC(=O)[C@H](Cc3ccccc3)NC(=O)[C@H](CCCCN)NC(=O)[C@@H](N)CSSC[C@@H](C(=O)O)NC(=O)[C@H](CO)NC(=O)[C@H]([C@@H](C)O)NC(=O)[C@H](Cc3ccccc3)NC(=O)[C@H]([C@@H](C)O)NC2=O)cc1", "note": "[Peptide No. 2, des-AA^1,2,5 [D-Trp^8, IAmp^9]-SRIF] (H-CKFF[dW][Phe(4-CH2NHiPr)]TFTSC-OH; disulfide 1-11)", "values": [{"measurement": "IC50", "setting": "[1]", "result": 1100, "unit": "nM"}, {"measurement": "IC50", "setting": "[2]", "result": 1, "unit": "nM"}, {"measurement": "IC50", "setting": "[3]", "result": "1.8 ± 0.7", "unit": "nM"}, {"measurement": "IC50", "setting": "[4]", "result": 1000, "unit": "nM"}]}
{"compound": "[^125 I-Tyr^11 ]SRIF (AGCKNFFWKTY(125I)TSC; ends and bridges not checked; UniProt P61278 103-116, looked up, variant F11Y)", "values": [{"measurement": "effect of GTPgS and pertussis toxin treatment on binding of the radioligand to SSTR1", "setting": "[5]", "result": "did not diminish; also recorded: not significantly effected by GTP analogs nor pertussis toxin treatment"}]}
{"compound": "CC(C)NCc1ccc(C[C@@H]2NC(=O)[C@@H](Cc3c[nH]c4ccccc34)NC(=O)[C@H](Cc3ccccc3)NC(=O)[C@H](Cc3ccccc3)NC(=O)[C@@H](N)CSSC[C@@H](C(=O)O)NC(=O)[C@H](Cc3ccccc3)NC(=O)[C@H]([C@@H](C)O)NC2=O)cc1", "note": "[[IAmp^9]ODT8, [IAmp^5]-ODT8] (H-CFF[dW][Phe(4-CH2NHiPr)]TFC-OH; disulfide 1-8)", "values": [{"measurement": "IC50", "setting": "[1]", "result": "> 1000", "unit": "nM"}, {"measurement": "IC50", "setting": "[2]", "result": 160, "unit": "nM"}, {"measurement": "IC50", "setting": "[4]", "result": 500, "unit": "nM"}]}
{"compound": "CC(C)NCc1ccc(C[C@@H]2NC(=O)[C@@H](Cc3c[nH]c4ccccc34)NC(=O)[C@H](Cc3ccccc3)NC(=O)[C@H](Cc3ccccc3)NC(=O)[C@H](CCCCN)NC(=O)[C@@H](NC(=O)[C@@H](N)Cc3ccc(O)c(I)c3)CSSC[C@@H](C(=O)O)NC(=O)[C@H](CO)NC(=O)[C@H]([C@@H](C)O)NC(=O)[C@H](Cc3ccccc3)NC(=O)[C@H]([C@@H](C)O)NC2=O)cc1", "note": "[^125 I-Tyr^2-des-AA^1,5-[D-Trp^8,IAmp^9]SRIF] (H-[Tyr(3-I)]CKFF[dW][Phe(4-CH2NHiPr)]TFTSC-OH; disulfide 2-12)", "values": [{"measurement": "effect of GTPgS and pertussis toxin treatment on binding of the radioligand to SSTR1", "setting": "[5]", "result": "reduced by GTPgS and pertussis toxin treatment"}, {"measurement": "specific binding of iodinated peptide to SSTR4", "setting": "[6]", "result": "did not bind"}, {"measurement": "specific binding of iodinated peptide to SSTR5", "setting": "[7]", "result": "did not bind"}, {"measurement": "specific binding of iodinated peptide to SSTR2", "setting": "[8]", "result": "did not bind"}, {"measurement": "Bmax, binding to SSTR1", "setting": "[9]", "result": "226±56", "unit": "fmol/mg protein"}, {"measurement": "specific binding of iodinated peptide to SSTR3", "setting": "[10]", "result": "did not bind"}]}
{"compound": "CC(C)NCc1ccc(C[C@@H]2NC(=O)[C@@H](Cc3c[nH]c4ccccc34)NC(=O)[C@H](Cc3ccccc3)NC(=O)[C@H](Cc3ccccc3)NC(=O)[C@H](CCCCN)NC(=O)[C@@H](N)CSSC[C@@H](C(=O)O)NC(=O)[C@@H](CO)NC(=O)[C@H]([C@@H](C)O)NC(=O)[C@H](Cc3ccccc3)NC(=O)[C@H]([C@@H](C)O)NC2=O)cc1", "note": "[Peptide No. 4, des-AA^1,2,5-[D-Trp^8, IAmp^9, D-Ser^13]SRIF] (H-CKFF[dW][Phe(4-CH2NHiPr)]TFT[dS]C-OH; disulfide 1-11)", "values": [{"measurement": "IC50", "setting": "[1]", "result": "> 1000", "unit": "nM"}, {"measurement": "IC50", "setting": "[2]", "result": 1.25, "unit": "nM"}, {"measurement": "IC50", "setting": "[4]", "result": 178, "unit": "nM"}, {"measurement": "IC50", "setting": "[11]", "result": "5.3 ± 0.8", "unit": "nM"}]}
{"compound": "CC(C)NCc1ccc(C[C@@H]2NC(=O)[C@@H](Cc3c[nH]c4ccccc34)NC(=O)[C@H](Cc3ccccc3)NC(=O)[C@H](Cc3ccccc3)NC(=O)[C@H](CCCCN)NC(=O)[C@@H](NC(=O)[C@@H](N)Cc3ccc(O)cc3)CSSC[C@@H](C(=O)O)NC(=O)[C@H](CO)NC(=O)[C@H]([C@@H](C)O)NC(=O)[C@H](Cc3ccccc3)NC(=O)[C@H]([C@@H](C)O)NC2=O)cc1", "note": "[Peptide No. 5] (H-YCKFF[dW][Phe(4-CH2NHiPr)]TFTSC-OH; disulfide 2-12)", "values": [{"measurement": "IC50", "setting": "[1]", "result": "> 100", "unit": "nM"}, {"measurement": "IC50", "setting": "[2]", "result": 0.8, "unit": "nM"}, {"measurement": "IC50", "setting": "[4]", "result": "> 100", "unit": "nM"}]}
{"compound": "C[C@H](N)C(=O)NCC(=O)N[C@H]1CSSC[C@@H](C(=O)O)NC(=O)[C@H](CO)NC(=O)[C@H]([C@@H](C)O)NC(=O)[C@H](Cc2ccccc2)NC(=O)[C@H]([C@@H](C)O)NC(=O)[C@H](CCCCN)NC(=O)[C@H](Cc2c[nH]c3ccccc23)NC(=O)[C@H](Cc2ccccc2)NC(=O)[C@H](Cc2ccccc2)NC(=O)[C@H](CC(N)=O)NC(=O)[C@H](CCCCN)NC1=O", "note": "[SRIF, somatostatin-14]", "values": [{"measurement": "inhibition of forskolin-stimulated cAMP formation", "setting": "[12]", "result": "Neither 1 μM of Peptide No. 2, nor SRIF itself, inhibits forskolin-stimulated cAMP formation"}]}
{"compound": "CC(C)NCc1ccc(C[C@@H]2NC(=O)[C@@H](Cc3c[nH]c4ccccc34)NC(=O)[C@H](Cc3ccccc3)NC(=O)[C@H](Cc3ccccc3)NC(=O)[C@H](CC(N)=O)NC(=O)[C@H](CCCCN)NC(=O)[C@@H](N)CSSC[C@@H](C(=O)O)NC(=O)[C@H](CO)NC(=O)[C@H]([C@@H](C)O)NC(=O)[C@H](Cc3ccccc3)NC(=O)[C@H]([C@@H](C)O)NC2=O)cc1", "note": "[Peptide No. 9] (H-CKNFF[dW][Phe(4-CH2NHiPr)]TFTSC-OH; disulfide 1-12)", "values": [{"measurement": "IC50", "setting": "[1]", "result": "> 1000", "unit": "nM"}, {"measurement": "IC50", "setting": "[2]", "result": 54, "unit": "nM"}, {"measurement": "IC50", "setting": "[4]", "result": "> 1000", "unit": "nM"}]}
